The values below come from patent US20250366472A1, “1-AMINOCYCLOPROPANE-1-CARBOXYLIC ACID OXIDASE INHIBITORS (ACO-I)” (Royal Holloway and Bedford New College, priority 2022, published 2025).

In data set [1] the test system is D. discoideum WT cells. Description: D. discoideum multicellular development, block at mound stage. Type of data set: cell-based. The procedure: The effect of MyA on multicellular development of D. discoideum was measured. The MyA was tested at a concentration of 100 μM.
The effect of ACO loss on multicellular development was assessed. ACO-D. discoideum mutants were engineered and compared to standard wild type D. discoideum cells.

Data set [2] has as its system wheat seedlings. Nature of the data set: Drought stress recovery of wheat seedlings. In kind it is in vivo. The conditions noted are these: 10 μM, 9 days drought, 19 days recovery. The procedure:
The seeds of each plant were washed with 5% sodium hypochlorite for 15 minutes (with shaking at 120 rpm) and then washed three times in sterile distilled water. The seeds were placed on two layers of waterlogged 3 MM for ˜72 hours under lights at RT until hypocotyl emerged. 7-10 germinated seeds were incubated in sterile Magenta boxes containing 100 mL perlite per box, moistened with 60 ml sterile distilled water and autoclaved. The seeds were incubated in a growth cabinet with a 12 hour light/dark cycle at 22° C. until the first seedling reached approximately 5 cm height. This took approximately 4-5 days. The water was then replaced with 0.5×Hoagland solution with the test compounds (or DMSO for control samples) for 24 hour (Hoagland's No2 Basal salt mixture, Sigma, H2395, use 1.6 g/L in sterile water and autoclaved), and returned to growth cabinet. […]
The drought samples were exposed to drought conditions for 9 days by removing the media and returned to the growth cabinet. […] The plant recovery over time (up to 19 days post rescue) was recorded and the photographs from the end of the experiment are illustrated in FIG. 8, FIG. 9 and FIG. 11.
The drought testing was repeated with wheat seedlings and the results are shown in FIGS. 9 and 10 wherein the data was measured following 5 days of growth, 9 days of drought and 19 days of recovery. […]

Data set [3] deals with barley seedlings. Nature of the data set: Drought stress recovery of barley seedlings. Type of data set: in vivo. The conditions noted are these: 5 days growth, 9 days drought, 12 days watered. How it is done:
(§1) The seeds of each plant were washed with 5% sodium hypochlorite for 15 minutes (with shaking at 120 rpm) and then washed three times in sterile distilled water. The seeds were placed on two layers of waterlogged 3 MM for ˜72 hours under lights at RT until hypocotyl emerged. 7-10 germinated seeds were incubated in sterile Magenta boxes containing 100 mL perlite per box, moistened with 60 ml sterile distilled water and autoclaved. The seeds were incubated in a growth cabinet with a 12 hour light/dark cycle at 22° C. until the first seedling reached approximately 5 cm height. This took approximately 4-5 days. The water was then replaced with 0.5×Hoagland solution with the test compounds (or DMSO for control samples) for 24 hour (Hoagland's No2 Basal salt mixture, Sigma, H2395, use 1.6 g/L in sterile water and autoclaved), and returned to growth cabinet. The media was then removed, the perlite was rinsed twice with sterile distilled water and the solution was replace with 35 ml 0.5 ×Hoaglands solution and returned to the growth cabinet for 24 hours.
The no drought sample was then grown in 0.5×Hoaglands solution and the solution was topped up daily.
The drought samples were exposed to drought conditions for 9 days by removing the media and returned to the growth cabinet. At recovery, 0.5×Hoaglands solution was added back to the drought sample Magenta boxes, up to the top of the perlite and this level was maintained during recovery. The plant recovery over time (up to 19 days post rescue) was recorded and the photographs from the end of the experiment are illustrated in FIG. 8, FIG. 9 and FIG. 11.
10 μM of 3-[(2E)-3-(4-fluorophenyl)prop-2-enoyl]-4-hydroxy-6-methyl-2H-pyran-2-one (labelled as 16B), 10 μM of 5,5-dimethyl-2-(2-phenylacetyl) cyclohexane-1,3-dione (labelled as 4B) and […] of AIB and 500 μM of POA were tested on barley seedlings.

Data set [4] concerns A. thaliana. Description: A. thaliana root and hypocotyl extension after 6 days. Type of data set: in vivo. The conditions noted are these: for concentration from which dose dependent effect on root/hypocotyl growth is seen: versus DMSO control, FIG. 6B; for potency compared to AIB: hypocotyl or root extension, from table 3; for effect on root and hypocotyl growth: FIG. 6A. How it is done: In these experiments, A. thaliana seeds were germinated and grown in 24 h light conditions for 6 days and root and hypocotyl length were recorded (FIG. 6A and 6B).
The IC50 values for the root or hypocotyl extension after 6 days for 5,5-dimethyl-2-(2-phenylacetyl) cyclohexane-1,3-dione (ACOi-84-16-4), 3-[(2E)-3-(4-fluorophenyl)prop-2-enoyl]-4-hydroxy-6-methyl-2H-pyran-2-one (ACOi-74-12-16) and MyA, compared to known compounds AIB and POA are presented in table 3. Images of the plant growth and the root hairs are shown in FIG. 6B for 5,5-dimethyl-2-(2-phenylacetyl) cyclohexane-1,3-dione (ACOi-84-16-4) and 3-[(2E)-3-(4-fluorophenyl)prop-2-enoyl]-4-hydroxy-6-methyl-2H-pyran-2-one (ACOi-74-12-16) and FIG. 6A for MyA and comparably for AIB and POA.

Data set [5] has as its system Carnations. Description: Cut carnation flower senescence (flower size). In kind it is in vivo. The conditions noted are these: for slowing of flower senescence versus control: 0.01 mM or 0.02 mM, flower size after 9 days; for performance versus POA and AIB: 0.01/0.02 mM versus POA 0.5/1 mM, AIB 5/10 mM. How it is done:
Carnations were cut to approximately 5 cm long stems and placed in a solution wherein the solution comprised 5 mL water and either no additional components (control), 0.01 mM or 0.02 mM of 5,5-dimethyl-2-(2-phenylacetyl) cyclohexane-1,3-dione (labelled as 4B) or 3-[(2E)-3-(4-fluorophenyl)prop-2-enoyl]-4-hydroxy-6-methyl-2H-pyran-2-one (labelled as 16B) or 0.5 mM or 1 mM of POA or 10 mM or 5mM of AIB were added. The flower size coverage was measured and the petal shrinkage, or reduction in flower size, is used as an indicator of flower senescence.

For data set [6], the system named is rye seedlings. Description: Drought stress recovery of rye seedlings. Type of data set: in vivo. The conditions noted are these: 10 μM, 9 days drought. The procedure: as §1
The no drought sample was then grown in 0.5×Hoaglands solution and the solution was topped up daily. […]
The drought testing was repeated with rye seedlings and the results are shown in FIG. 11 wherein the data was measured following 5 days of growth, 9 days of drought and 19 days of recovery. […]

Data set [7] concerns ethylene production. Nature of the data set: Ethylene production of D. discoideum cells, headspace GCMS. Type of data set: cell-based. The conditions noted are these: 500 μM. The procedure: Wild type cells in the presence or absence of MyA (500 μM), or ACO-cells were maintained in sealed small flasks with limited head space over 36 h, and headspace gas was taken at 6-hour intervals and analysed by GCMS.

In data set [8] the test system is ACO ablated D. discoideum cells (ACO-). Nature of the data set: Growth sensitivity of ACO-mutant D. discoideum cells to MyA. In kind it is cell-based. The text has this: The cell and developmental role of the D. discoideum ACO protein were investigated. FIG. 3C illustrates the resistance to the growth and developmental inhibitory effect of MyA on wild type D. discoideum cells (WT) and ACO ablated D. discoideum cells (ACO-).

For data set [9], the system named is csA, cAR1, pspA, ecmA expression. Description: Developmental gene expression in D. discoideum by qPCR. In kind it is cell-based. The conditions noted are these: 100 μM, 0 to 20 hours. The procedure:
To provide quantitative analysis of the developmental effects of MyA, wild type cells were induced to develop on nitrocellulose filters for time periods between 0 and 20 hours, using cells under solvent only conditions, in the presence of MyA (100 μM), or in the presence of MyA and CEPA. Developmental gene expression associated with early aggregation (csA), […], and in late development (ecmA) were assessed using qPCR. […] Similar delays in peak gene expression were also seen for carA (peak 4 h), and pspA (peak 12 h), and ecmA (peak 20 h), following MyA treatment, and these delays were rescued by addition of exogenous ethylene. These experiments confirm a MyA-dependent delay in D. discoideum development that is rescued by exogenous ethylene application, consistent with a role for MyA in inhibiting ACO activity and slowing crop maturation.

The test system of data set [10] is D. discoideum cells. Nature of the data set: Inhibition of D. discoideum unicellular growth (wild type). In kind it is cell-based. How it is done: The unicellular growth rate and multicellular of D. discoideum cells on exposure to MyA was tested and the results are illustrated in FIG. 1 and FIG. 2.
D. discoideum cells were divided by binary fission in nutrient-rich media, initially with a lag phase (0-120 h), and then an exponential phase. The D. discoideum cells were then exposed to MyA at concentrations of 0 μm, 1 μm, 10 μm, 15 μm, 25 μm, 50 μm and 100 μm.

Setting [11] is: Arabidopsis thaliana, 144 h, Hypocotyl, 6 days, read-out: IC50 hypocotyl extension.
The mark [12] stands for this setting: Arabidopsis thaliana, 144 h, Root, 6 days, read-out: IC50 root extension.
The mark [13] stands for this setting: Hypocotyl, 6 days, read-out: IC50 hypocotyl extension.

Broadly, the IC50 is the concentration needed to halve the response being measured.

Each structure is given as a SMILES string. Read-outs that look alike come from different tables or passages of the source.

Regarding `Cc1cc(O)c(C(=O)/C=C/c2ccc(F)cc2)c(=O)o1` [ACOi-74-12-16, 3-[(2E)-3-(4-fluorophenyl)prop-2-enoyl]-4-hydroxy-6-methyl-2H-pyran-2-one], the “efficacy in development block model” value in data set [1] (100 μM) is on record as “potent efficacy”. The “recovery after drought versus untreated drought control” value in data set [2] and in data set [6] (19 days recovery) was “improved recovery” in each case. In addition, the “seedling height and mass versus drought control” value in [2] (FIG. 10) is “increased height and mass”. Also, the recovery after drought entry was “comparable seedling height to the control sample which had been watered throughout the duration” in data set [3] (10 μM) and “continues to recover” in data set [6] (23 days recovery). For the same compound, the “concentration from which dose dependent effect on root/hypocotyl growth is seen” value in data set [4] (6 days) was determined as 5 μm. The IC50 in data set [4] (setting [11]) came to 0.79 µM; in [4] (setting [12]), 1.02 µM. Also, in data set [4], the “potency compared to AIB” value was 1580 fold. In addition, the “slowing of flower senescence versus control” value in data set [5] was “significant effect”. The “performance versus POA and AIB” value in data set [5] is listed as “comparable performance”.
Consider `CC1C(=O)C(C(=O)CCc2ccccc2)C(=O)C(C)(C)C1=O` (centres unmarked) [MyA, 2,2,4-trimethyl-6-(3-phenylpropanoyl) cyclohexane-1,3,5-trione], for which the “effect on multicellular development” value in [1] (100 μM, 24 hours) is given as “later stages of development were delayed”. For the same compound, the “development after extended incubation” value in data set [1] (100 μM, 36 hours) is “developed into fully mature fruiting bodies”. In data set [1] (100 μM, 36 hours), the “lethality of high dose” value is listed as “not lethal”. Also, the “rescue of developmental delay by exogenous ethylene (CEPA)” value in data set [1] (MyA 100 μM plus CEPA) is “partially rescued”. In data set [4] (6 days), the “effect on root and hypocotyl growth” value is recorded as “comparative reduction”. The concentration for half-maximal inhibition (IC50) in data set [4] (setting [11]) was found to be 59.4 µM; in data set [4] (setting [12]), 53.3 µM; in [8] (Dictyostelium discoideum, ACO- D. discoideum cells), 29.9 µM; in [10] (Dictyostelium discoideum, wild type D. discoideum, secondary plot of normalised growth rate) it was 7.6 µM. The “lowest concentration shown to have an effect on growth” value in data set [4] (root and hypocotyl, 6 days, 24 h light) was found to be 0.025 mM. Also, in [4] (versus AIB), the “lowest effective concentration, times lower than AIB” value is recorded as 20 times. In addition, the “lowest effective concentration, times lower than POA” value in data set [4] (versus POA) was 4 times. The “decrease in ethylene production” value stood at 39.5% in data set [7] (12 hours, P=0.031) and 37.9% in data set [7] (36 hours, P=0.0025). For the same compound, the “reduction in potency in the ACO-mutant versus wild type” value in data set [8] was “four-fold”. Besides, the “peak expression of developmental genes (csA, carA, pspA, ecmA)” value in data set [9] was “delayed”. Besides, the “effect on unicellular growth” value in data set [10] (10 μM, P<0.05) is on record as “significant reduction”; in data set [10] (100 μM) it was “block in growth”.
In the case of `CC1(C)CC(=O)C(C(=O)Cc2ccccc2)C(=O)C1` [ACOi-84-16-4, 5,5-dimethyl-2-(2-phenylacetyl)cyclohexane-1,3-dione], the “efficacy in development block model” value in data set [1] (100 μM) is listed as “potent efficacy”. For the same compound, the recovery after drought result in data set [3] (10 μM) is “comparable growth to the same treated with 10,000 μM AIB”. In addition, in [4] (6 days), the “concentration from which dose dependent effect on root/hypocotyl growth is seen” value worked out at 5 μm. The IC50 was 8.2 µM in data set [4] (setting [11]) and 6.9 µM in [4] (setting [12]). Besides, the “potency compared to AIB” value in data set [4] is “over 5400 fold”. For the same compound, in data set [5], the “slowing of flower senescence versus control” value is listed as “significant effect”. For the same compound, in data set [5], the “performance versus POA and AIB” value is recorded as “comparable performance”.
With `CC(C)(N)C(=O)O` [AIB, a-aminoisobutyric acid, reference compound], the recovery after drought entry in data set [3] (2,000 μM) is given as “did slightly better”; in data set [3] (10,000 μM), “did better still”. Moreover, the “effect on root and hypocotyl growth” value in data set [4] (6 days) was “dose-dependent reduction”. Also, the 50% inhibitory concentration (IC50) is 4290 µM in [4] (setting [13]) and 1620 µM in [4] (Root, 6 days, read-out: IC50 root extension).
As to `O=C(O)c1cnccn1` [POA, pyrazinecarboxylic acid, reference compound], in data set [3] (500 μM), the recovery after drought result is “did not show positive result”. The “effect on root and hypocotyl growth” value in data set [4] (6 days) was “dose-dependent reduction”. The IC50 in data set [4] (setting [12]) was determined as 213 µM; in [4] (setting [13]), 184 µM.
